Measured values taken from patent publication US20150265630A1, “6-Substituted Estradiol Derivatives for the Treatment of Alzheimer's Disease” (Endece LLC, priority 2014, published 2015).

Experiments:
Format in all cases: cell-based
[1] = test system: Lipoprotein Lipase mRNA (LPL); assay: Expression profiling (Agilent whole human genome microarray), LPL mRNA in human tumor cell lines; conditions: for Gene expression value, Lipoprotein Lipase mRNA (LPL), treated vs untreated: 50 μM, 24 hours
Procedure: (§1) The study includes three human tumor cell lines: A549, Panc-1, and SK-OV-3. The lines are each grown in two flasks cultured to roughly 40% confluence. One of the flasks is treated by addition of compound to the culture media at a various concentrations, i.e. 10 μM, 20 μM 50 μM, or 100 μM. The other, mock treated, flask is treated only with the vehicle used to solubilize and deliver the drug. RNA extracted from the pairs of treated and untreated samples is subjected to microarray analysis on Agilent Whole Human Genome Microarrays (G4112F). Each analysis reports the difference in abundance of messenger RNAs for each of the 41,000 specific mRNA detectors on the array. This direct comparison of the treated versus untreated samples for each cell line provides extremely sensitive detection of changes in mRNA abundance resulting from the drug treatment. As each cell line comparison is self-normalized, the results can be compared across the samples with high confidence.
(§2) Three human tumor cell lines, A549, Panc-1, and SK-OV-3, are each grown in two flasks cultured to roughly 40% confluence. One of the flasks is treated by addition of compound to the culture media at concentrations of 10 μM, 50 μM and 100 μM. The other, mock treated, flask is treated only with the vehicle used to solubilize and deliver the drug. All flasks are cultured for a further 24 hours, and then the cells are scraped free and washed in ice-cold PBS, then collected by centrifugation. The harvested cells are immediately frozen, and stored at −80° C. or colder.
(§3) Total RNA is prepared from the frozen tissue samples using Trizol-based cell lysis followed by 65° C. hot phenol extraction and RNeasy chromatography purification. The purified RNA samples are analyzed spectrophotometrically. The concentration of RNA is determined by measuring the absorbance at 260 nm (A260). Given an absorbance of 1 unit at 260 nm corresponds to […] of RNA per ml when measured at pH 11.
(§4) All RNAs are labeled using 1 microgram of RNA as input to an Agilent Low Input Labeling reaction.
(§5) Test RNA is labeled with Cy5 (650 nm emitter) and reference RNA is labeled with Cy3 (550 nm emitter) nucleotides. Labeling, hybridizations and subsequent washings are carried out on Agilent H1Av2 human expression chips. The resulting hybridized chips are scanned on an Agilent microarray scanner, and intensity information for each detector spot is extracted from the scanned image using Agilent feature extraction software. […]
(§6) After the ratios have been calculated for the normalized data, the various control and duplicate samples are analyzed to build a model of how reproducible the results are, and how this reproducibility is varies depending on signal strength and noise. […]

[2] = test system: Apolipoprotein C2 (ApoC2); assay: Expression profiling (Agilent whole human genome microarray), ApoC2 mRNA in human tumor cell lines; conditions: for Gene expression value, Apolipoprotein C2 (ApoC2), treated vs untreated: 50 μM, 24 hours
Procedure: as §1, §2, §3, §4, §5, §6

[3] = test system: Apolipoprotein C3 (ApoC3); assay: Expression profiling (Agilent whole human genome microarray), ApoC3 mRNA in human tumor cell lines; conditions: for Gene expression value, Apolipoprotein C3 (ApoC3), treated vs untreated: 50 μM, 24 hours
Procedure: as §1, §2, §3, §4, §5, §6

[4] = human tumor cell lines SKOV-3, A549 and Panc-1, summary of Table 1

COCCCCCC[C@@H]1C[C@@H]2[C@H](CC[C@]3(C)C(O)CC[C@@H]23)c2ccc(O)cc21 (stereo partly drawn) [Compound 21, (6R,8R,9S,13S,14S)-6-(6-methoxyhexyl)-13-methyl-7,8,9,11,12,13,14,15,16,17-decahydro-6H-cyclopenta[a]phenanthrene-3,17-diol]
Gene expression value, Lipoprotein Lipase mRNA (LPL), treated vs untreated ([1]; A549 cells, p = 0.0018): 2.95 log2 | Gene expression value, Lipoprotein Lipase mRNA (LPL), treated vs untreated ([1]; Panc-1 cells): 3.90 log2 | Gene expression value, Lipoprotein Lipase mRNA (LPL), treated vs untreated ([1]; SKOV-3 cells, p = 0.008): 2.77 log2 | Regulation of the LPL gene (in words) [1, 4]: up-regulate | Gene expression value, Apolipoprotein C2 (ApoC2), treated vs untreated ([2]; A549 cells): 7.21 log2 | Gene expression value, Apolipoprotein C2 (ApoC2), treated vs untreated ([2]; Panc-1 cells): 6.91 log2 | Gene expression value, Apolipoprotein C2 (ApoC2), treated vs untreated ([2]; SKOV-3 cells): 3.89 log2 | Regulation of the ApoC2 gene (in words) [2, 4]: up-regulate | Gene expression value, Apolipoprotein C3 (ApoC3), treated vs untreated ([3]; A549 cells): 0 log2 | Gene expression value, Apolipoprotein C3 (ApoC3), treated vs untreated ([3]; Panc-1 cells): 0 log2 | Gene expression value, Apolipoprotein C3 (ApoC3), treated vs untreated ([3]; SKOV-3 cells): 0 log2 | Regulation of the ApoC3 gene (in words) [3, 4]: but not the ApoC3 gene
